Results from ChEMBL document CHEMBL1201862, “PubChem BioAssay data set” (2004).
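Grown in 96-well plates, cells were treated for 48 hours with each compound at five concentrations. Insufficient inhibition: endpoint recorded as highest concentration tested. GI50 = concentration required for 50% inhibition of growth.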 Calls of active or inactive are those of the source. No stated cut-off is given here; in the data, active = GI50 up to about 1.1 µM and inactive = higher.

How the values were obtained:
Assay in all cases: NCI tumour cell line growth inhibition, 48 h
MOLT-4 = system: MOLT-4
OVCAR-4 = system: OVCAR-4
SK-OV-3 = system: SK-OV-3
KM12 = system: KM12
IGROV-1 = system: IGROV-1
A549 = system: A549
COLO 205 = system: COLO 205
SR = system: SR
786-0 = system: 786-0
UO-31 = system: UO-31
HL-60 = system: HL-60
SK-MEL-2 = system: SK-MEL-2
OVCAR-8 = system: OVCAR-8
SF-268 = system: SF-268
TK-10 = system: TK-10
RXF 393 = system: RXF 393
HCT-116 = system: HCT-116
MDA-N = system: MDA-N
PC-3 = system: PC-3
Hs-578T = system: Hs-578T

Measured: GI50

CC(=O)Nc1ccc(C2CC(c3ccc([N+](=O)[O-])cc3)=Nc3ccccc3S2)cc1 (stereo not drawn)
inactive: MOLT-4 11.8 µM | OVCAR-4 19.7 µM | SK-OV-3 40.6 µM | KM12 13.9 µM | IGROV-1 25.8 µM | A549 20.6 µM | COLO 205 36.8 µM | SR 12.9 µM | 786-0 17.4 µM | UO-31 13.8 µM | HL-60 21.3 µM | SK-MEL-2 17.9 µM | OVCAR-8 16.6 µM | SF-268 24 µM | TK-10 23.9 µM | RXF 393 19.3 µM | HCT-116 9.75 µM

CC1(C)COC(c2ccccc2-c2ccccc2)=N1
inactive: MOLT-4 > 100 µM | OVCAR-4 > 100 µM | SK-OV-3 > 100 µM | KM12 > 100 µM | IGROV-1 67.8 µM | A549 59.2 µM | COLO 205 > 100 µM | SR > 100 µM | 786-0 > 100 µM | UO-31 67.6 µM | HL-60 > 100 µM | SK-MEL-2 > 100 µM | MDA-N > 100 µM | OVCAR-8 > 100 µM | SF-268 > 100 µM | PC-3 > 100 µM | RXF 393 70.5 µM | HCT-116 > 100 µM

CCN(CC)c1ccc2cc(C(=O)Nc3ccccn3)c(=N)oc2c1
inactive: MOLT-4 > 100 µM | OVCAR-4 > 100 µM | SK-OV-3 52 µM | KM12 > 100 µM | IGROV-1 > 100 µM | A549 > 100 µM | COLO 205 > 100 µM | SR > 100 µM | 786-0 35.3 µM | HL-60 > 100 µM | SK-MEL-2 25.5 µM | MDA-N > 100 µM | OVCAR-8 36.3 µM | Hs-578T 32.1 µM | SF-268 60.8 µM | RXF 393 47.9 µM | HCT-116 55.5 µM

CC(C)(C)C1=C(Br)C(OC(=O)C(F)(F)F)(C(C)(C)C)OP1(=O)c1ccccc1 (stereo not drawn)
inactive: OVCAR-4 49.1 µM | SK-OV-3 39.1 µM | KM12 63 µM | IGROV-1 35.7 µM | A549 25.6 µM | COLO 205 18.5 µM | 786-0 40.2 µM | UO-31 52.5 µM | HL-60 24.8 µM | SK-MEL-2 29.2 µM | MDA-N 60.8 µM | OVCAR-8 34.7 µM | Hs-578T 23.7 µM | SF-268 61.4 µM | TK-10 79.3 µM | PC-3 18.1 µM | HCT-116 33 µM

COc1ccc(C2C(Cl)C(=O)N2NC(=O)c2ccc(N)cc2)cc1OC (stereo not drawn)
inactive: MOLT-4 1.96 µM | OVCAR-4 5.69 µM | SK-OV-3 18.8 µM | KM12 1.52 µM | IGROV-1 1.36 µM | A549 15.4 µM | COLO 205 11.9 µM | SR 2.2 µM | 786-0 2.43 µM | UO-31 12.1 µM | HL-60 1.64 µM | SK-MEL-2 11.9 µM | MDA-N 9.46 µM | OVCAR-8 4.08 µM | SF-268 10.9 µM | TK-10 17 µM | PC-3 12.9 µM | RXF 393 15.3 µM | HCT-116 1.5 µM

Cc1ccc(/C=C2/NC(=S)SC2=O)cc1
inactive: MOLT-4 33.8 µM | OVCAR-4 28.9 µM | SK-OV-3 88.1 µM | KM12 33.3 µM | IGROV-1 37.7 µM | A549 36.7 µM | COLO 205 35.7 µM | 786-0 34.6 µM | UO-31 24.5 µM | HL-60 27.4 µM | SK-MEL-2 36.9 µM | OVCAR-8 31 µM | TK-10 18.1 µM | PC-3 38.4 µM | HCT-116 30.5 µM

COc1cc2c(cc1C)NC(=O)/C2=C\c1cccnc1
inactive: MOLT-4 7.98 µM | OVCAR-4 18.7 µM | SK-OV-3 16.3 µM | KM12 13.6 µM | A549 21.3 µM | COLO 205 16.5 µM | 786-0 25 µM | UO-31 15.6 µM | HL-60 5 µM | SK-MEL-2 18.7 µM | OVCAR-8 15.5 µM | Hs-578T 24.7 µM | SF-268 19.4 µM | TK-10 14.9 µM | PC-3 30.1 µM | RXF 393 17.4 µM | HCT-116 15.1 µM

OCC1OC(c2cccc3cc(O)c(O)cc23)CC1O (stereo not drawn)
inactive: MOLT-4 > 100 µM | OVCAR-4 > 100 µM | SK-OV-3 > 100 µM | KM12 > 100 µM | IGROV-1 64 µM | A549 > 100 µM | 786-0 > 100 µM | UO-31 > 100 µM | HL-60 42.3 µM | SK-MEL-2 > 100 µM | MDA-N > 100 µM | OVCAR-8 > 100 µM | Hs-578T > 100 µM | SF-268 93.1 µM | TK-10 > 100 µM | PC-3 > 100 µM | HCT-116 > 100 µM

C=C(C)C1CC/C(C)=C/CC[C@]2(C)O[C@H]2CC/C(COC(C)=O)=C\[C@@H]1O (stereo partly drawn)
inactive: MOLT-4 16 µM | OVCAR-4 > 50 µM | SK-OV-3 31.1 µM | KM12 > 50 µM | IGROV-1 > 50 µM | A549 > 50 µM | COLO 205 17.9 µM | SR 34.6 µM | 786-0 > 50 µM | UO-31 > 50 µM | HL-60 27.4 µM | SK-MEL-2 > 50 µM | OVCAR-8 > 50 µM | SF-268 > 50 µM | TK-10 > 50 µM | PC-3 22.4 µM | RXF 393 > 50 µM | HCT-116 > 50 µM

CC1CC[C@@]2(OC1)OC1CC3C4CCC5C[C@@H](OC6OC(CO)C(OC7OC(CO)C(O)C(OC8OC(CO)C(O)C(OC9OC(CO)C(O)C(O)C9O)C8O)C7OC7OC(CO)C(O)C(O)C7O)C(O)C6O)[C@H](O)C[C@]5(C)C4CC[C@]3(C)C1[C@@H]2C (stereo partly drawn)
inactive: OVCAR-4 > 80.5 µM | SK-OV-3 > 80.5 µM | KM12 > 80.5 µM | A549 > 80.5 µM | COLO 205 > 80.5 µM | 786-0 > 80.5 µM | HL-60 > 80.5 µM | MDA-N > 80.5 µM | OVCAR-8 > 80.5 µM | Hs-578T > 80.5 µM | SF-268 > 80.5 µM | TK-10 > 80.5 µM | PC-3 > 80.5 µM | RXF 393 > 80.5 µM | HCT-116 > 80.5 µM

Cc1ccc(O)cc1.Cc1cccc(O)c1.Cc1ccccc1O [CRESOL]
inactive: MOLT-4 88.7 µM | OVCAR-4 89.3 µM | SK-OV-3 > 100 µM | KM12 > 100 µM | IGROV-1 88.9 µM | A549 > 100 µM | COLO 205 > 100 µM | 786-0 > 100 µM | UO-31 > 100 µM | HL-60 > 100 µM | SK-MEL-2 > 100 µM | OVCAR-8 > 100 µM | Hs-578T 4.75 µM | SF-268 > 100 µM | TK-10 > 100 µM | PC-3 73.3 µM | RXF 393 > 100 µM | HCT-116 > 100 µM
